Legend:
Test in all cases: relative viability (nuclei count vs DMSO), 5 days (fraction); higher = more cells survive
[1] = compound: OCc1c[nH]c2ccccc12 [Indole-3-carbinol] + Cc1nc(Nc2ncc(C(=O)Nc3c(C)cccc3Cl)s2)cc(N2CCN(CCO)CC2)n1 [Dasatinib] (partner 0.075 µM)
How it was run: (§1)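 Medians of duplicate plates are given as relative viability. That measure is the nuclei count in treated wells divided by the count in vehicle wells. Counts were taken on 4× images of lung cancer cell lines in 1536-well plates, 5 days after pin-tool dosing the day after seeding with one drug alone or a fixed anchor-drug dose plus five library-drug doses (not always all listed) in √10 steps.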

[2] = compound: OCc1c[nH]c2ccccc12 [Indole-3-carbinol] + CC(=O)Nc1cccc(-n2c(=O)n(C3CC3)c(=O)c3c(Nc4ccc(I)cc4F)n(C)c(=O)c(C)c32)c1 [Trametinib] (partner 0.02 µM)
How it was run: as §1

[3] = compound: OCc1c[nH]c2ccccc12 [Indole-3-carbinol] + CC1(C)CCC(c2ccc(Cl)cc2)=C(CN2CCN(c3ccc(C(=O)NS(=O)(=O)c4ccc(N[C@H](CCN5CCOCC5)CSc5ccccc5)c(S(=O)(=O)C(F)(F)F)c4)cc3)CC2)C1 [Navitoclax] (partner 0.5 µM)
How it was run: as §1

[4] = compound: OCc1c[nH]c2ccccc12 [Indole-3-carbinol] + CS(=O)(=O)CCNCc1ccc(-c2ccc3ncnc(Nc4ccc(OCc5cccc(F)c5)c(Cl)c4)c3c2)o1 [Lapatinib] (partner 2 µM)
How it was run: as §1

[5] = compound: OCc1c[nH]c2ccccc12 [Indole-3-carbinol] + COc1cc2c(Oc3ccc(NC(=O)C4(C(=O)Nc5ccc(F)cc5)CC4)cc3F)ccnc2cc1OCCCN1CCOCC1 [Foretinib] (partner 0.25 µM)
How it was run: as §1

Row | Cell Line | relative viability ([1]; first compound 0.253 µM) | relative viability ([1]; first compound 0.8 µM) | relative viability ([1]; first compound 2.53 µM) | relative viability ([1]; first compound 8 µM) | relative viability ([2]; first compound 0.253 µM) | relative viability ([2]; first compound 0.8 µM) | relative viability ([2]; first compound 2.53 µM) | relative viability ([2]; first compound 8 µM) | relative viability ([3]; first compound 0.253 µM) | relative viability ([3]; first compound 0.8 µM) | relative viability ([3]; first compound 2.53 µM) | relative viability ([3]; first compound 8 µM) | relative viability ([4]; first compound 0.253 µM) | relative viability ([4]; first compound 0.8 µM) | relative viability ([4]; first compound 2.53 µM) | relative viability ([4]; first compound 8 µM) | relative viability ([5]; first compound 0.253 µM) | relative viability ([5]; first compound 0.8 µM) | relative viability ([5]; first compound 2.53 µM) | relative viability ([5]; first compound 8 µM)
1 | 201T | 0.556 | 0.635 | 0.566 | 0.554 | 0.704 | 0.705 | 0.697 | 0.692 | 1.22 | 1.15 | 1.18 | 1.2 | 1.1 | 0.969 | 1.01 | 0.999 | 1.1 | 1.07 | 1.04 | 1.01
2 | A-427 | 0.676 | 0.768 | 0.742 | 0.564 | 0.713 | 0.717 | 0.76 | 0.685 | 0.963 | 1.05 | 0.97 | 0.947 | 1.03 | 1 | 0.989 | 0.976 | 0.941 | 1.14 | 1.01 | 0.94
3 | ABC-1 | 0.47 | 0.596 | 0.456 | 0.591 | – | – | – | – | – | – | – | – | 1.27 | 1.2 | 1.37 | 0.845 | 0.903 | 0.961 | 1.13 | 1
4 | BEN | 0.334 | 0.351 | 0.318 | 0.294 | 0.995 | 1.14 | 1.03 | 0.936 | 0.0839 | 0.0691 | 0.0796 | 0.048 | 0.782 | 0.72 | 0.718 | 0.696 | 0.566 | 0.501 | 0.651 | 0.624
5 | CAL-12T | 0.385 | 0.53 | 0.536 | 0.366 | 0.361 | 0.411 | 0.31 | 0.295 | 1.21 | 1.48 | 1.16 | 0.993 | 0.728 | 0.592 | 0.665 | 0.527 | 1.13 | 1.17 | 1.01 | 1.09
6 | COR-L23 | 0.505 | 0.571 | 0.586 | 0.542 | 0.619 | 0.557 | 0.703 | 0.549 | 1.17 | 1.07 | 0.976 | 0.797 | 0.921 | 0.918 | 0.998 | 0.887 | 0.992 | 0.977 | 1.1 | 0.951
7 | COR-L 105 | 0.368 | 0.337 | 0.396 | 0.301 | 0.407 | 0.405 | 0.473 | 0.428 | 0.718 | 0.701 | 0.821 | 0.631 | 0.339 | 0.281 | 0.353 | 0.343 | 1.22 | 0.838 | 0.963 | 1.03
8 | ChaGo-K-1 | 0.583 | 0.568 | 0.709 | 0.604 | 0.91 | 0.905 | 0.832 | 0.885 | 0.805 | 0.962 | 0.913 | 0.966 | – | – | – | – | 0.955 | 0.941 | 0.872 | 0.894
9 | EKVX | 0.564 | 0.54 | 0.535 | 0.67 | 0.298 | 0.344 | 0.297 | 0.313 | 1.13 | 1.01 | 0.983 | 0.873 | 0.203 | 0.18 | 0.207 | 0.198 | 0.859 | 0.97 | 0.844 | 0.829
10 | EMC-BAC-2 | 0.329 | 0.307 | 0.337 | 0.312 | 0.789 | 0.918 | 0.879 | 0.849 | 1.16 | 1.21 | 1.11 | 1.04 | 0.879 | 0.76 | 0.852 | 0.813 | 1.02 | 1.01 | 0.917 | 0.923
11 | EPLC-272H | 0.44 | 0.406 | 0.403 | 0.387 | 0.293 | 0.268 | 0.296 | 0.275 | 1.32 | 1.08 | 1.26 | 0.988 | 1.3 | 0.851 | 1.04 | 0.716 | 0.67 | 0.72 | 0.724 | 0.709
12 | H3255 | 0.346 | 0.456 | 0.338 | 0.321 | 0.515 | 0.643 | 0.57 | 0.589 | 0.643 | 0.523 | 0.54 | 0.467 | 0.245 | 0.235 | 0.227 | 0.255 | 0.985 | 0.669 | 1.09 | 0.917
13 | HARA | 0.289 | 0.296 | 0.323 | 0.198 | 0.673 | 0.834 | 0.818 | 0.652 | 1.18 | 1.17 | 1.14 | 1.16 | 0.932 | 0.737 | 0.711 | 0.654 | 0.777 | 0.932 | 1.09 | 0.809
14 | HCC-15 | 0.615 | 0.745 | 0.611 | 0.607 | 0.414 | 0.458 | 0.391 | 0.395 | 0.692 | 0.722 | 0.66 | 0.71 | 0.965 | 0.951 | 0.893 | 0.829 | 1.04 | 1.14 | 1.07 | 1.01
15 | HCC-44 | – | – | – | – | 1.05 | 1.13 | 1.09 | 1.04 | 1.05 | 0.986 | 0.941 | 0.859 | 1.02 | 1.04 | 0.973 | 0.988 | – | – | – | –
16 | HCC-78 | 0.335 | 0.436 | 0.392 | 0.535 | 0.717 | 0.644 | 0.793 | 0.77 | 0.925 | 0.553 | 0.776 | 0.719 | 0.97 | 0.645 | 0.768 | 0.664 | 0.558 | 0.526 | 0.592 | 0.523
17 | HCC-366 | 0.626 | 0.721 | 0.724 | 0.601 | 0.358 | 0.322 | 0.422 | 0.304 | 1.03 | 1.02 | 0.986 | 0.948 | 1.07 | 0.867 | 0.985 | 0.987 | 0.959 | 0.861 | 0.902 | 0.926
